According to ChEMBL document CHEMBL1201862, “PubChem BioAssay data set” (2004):
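Following 48 hours of exposure in 96-well plates, responses at five concentrations were used to interpolate endpoints linearly. GI50: concentration for 50% inhibition of growth.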 Calls of active or inactive are those of the source. Rule as the data show it: active = GI50 up to about 1.1 µM and inactive = higher.

What was measured:
Experiment in all cases: NCI anticancer screen, dose series, 48 h
A549 = test system: A549
ACHN = test system: ACHN
CAKI-1 = test system: CAKI-1
CCRF-CEM = test system: CCRF-CEM
DU-145 = test system: DU-145
EKVX = test system: EKVX
HCC 2998 = test system: HCC 2998
HCT-15 = test system: HCT-15
HL-60 = test system: HL-60
K562 = test system: K562
KM12 = test system: KM12
NCI-H226 = test system: NCI-H226
NCI-H522 = test system: NCI-H522
NCI/ADR-RES = test system: NCI/ADR-RES
PC-3 = test system: PC-3
RXF 393 = test system: RXF 393
SF-539 = test system: SF-539
SNB-75 = test system: SNB-75
TK-10 = test system: TK-10
UO-31 = test system: UO-31

| Compound | GI50 (A549) | GI50 (ACHN) | GI50 (CAKI-1) | GI50 (CCRF-CEM) | GI50 (DU-145) | GI50 (EKVX) | GI50 (HCC 2998) | GI50 (HCT-15) | GI50 (HL-60) | GI50 (K562) | GI50 (KM12) | GI50 (NCI-H226) | GI50 (NCI-H522) | GI50 (NCI/ADR-RES) | GI50 (PC-3) | GI50 (RXF 393) | GI50 (SF-539) | GI50 (SNB-75) | GI50 (TK-10) | GI50 (UO-31) |
| --- | --- | --- | --- | --- | --- | --- | --- | --- | --- | --- | --- | --- | --- | --- | --- | --- | --- | --- | --- | --- |
| Cc1[nH]n(-c2ncc(C(=O)O)c(=O)[nH]2)c(=O)c1CCO | > 85.3 µM (inactive) | > 100 µM (inactive) | > 100 µM (inactive) | > 100 µM (inactive) | > 100 µM (inactive) | > 100 µM (inactive) | > 58.9 µM (inactive) | > 100 µM | > 100 µM (inactive) | > 100 µM (inactive) | > 100 µM (inactive) | > 100 µM (inactive) | > 100 µM (inactive) | > 100 µM (inactive) | > 100 µM (inactive) | > 100 µM (inactive) | > 84.9 µM (inactive) | > 88.5 µM (inactive) | > 100 µM (inactive) | > 100 µM (inactive) |
| CC(=O)OCC1OC(n2c(C)c(C)c(C)c(C#N)c2=S)C(OC(C)=O)C(OC(C)=O)C1OC(C)=O (stereo not given) | > 100 µM (inactive) | 48.5 µM (inactive) | > 100 µM (inactive) | > 100 µM (inactive) | > 100 µM (inactive) | 26.2 µM (inactive) | > 100 µM (inactive) | > 100 µM | > 100 µM (inactive) | > 100 µM (inactive) | > 100 µM (inactive) | > 100 µM (inactive) | 21.8 µM (inactive) | > 100 µM (inactive) | > 100 µM (inactive) | 18.6 µM (inactive) | 69.7 µM (inactive) | 80 µM (inactive) | 46.6 µM (inactive) | 14.7 µM (inactive) |
| CN(C)CCN(c1ccccn1)c1ccccn1 | > 100 µM (inactive) | > 100 µM (inactive) | > 100 µM (inactive) | > 100 µM (inactive) | > 100 µM (inactive) | > 100 µM (inactive) | > 100 µM (inactive) | > 100 µM | > 100 µM (inactive) | > 100 µM (inactive) | > 100 µM (inactive) | > 100 µM (inactive) | > 100 µM (inactive) | > 100 µM (inactive) | > 100 µM (inactive) | > 100 µM (inactive) | > 100 µM (inactive) | > 100 µM (inactive) | > 100 µM (inactive) | > 100 µM (inactive) |
| O=C1/C(=N/CCc2cc(Br)c(O)c(Br)c2)C=C(O)c2cccnc21 | 2.1 µM (inactive) | 2.68 µM (inactive) | 5.04 µM (inactive) | 5.24 µM (inactive) | 1.45 µM (inactive) | 8.47 µM (inactive) | 6.78 µM (inactive) | 2.36 µM | 4.88 µM (inactive) | 1.56 µM (inactive) | 2.94 µM (inactive) | 1.87 µM (inactive) | 1.74 µM (inactive) | 4.75 µM (inactive) | 3.92 µM (inactive) | 2.24 µM (inactive) | 0.918 µM (active) | 1.13 µM (inactive) | 3.33 µM (inactive) | 3.12 µM (inactive) |
| CCc1nc(N)nc(N)c1-c1ccc([N+](C)(C)C)cc1 | > 100 µM (inactive) | > 100 µM (inactive) | > 100 µM (inactive) | > 100 µM (inactive) | > 100 µM (inactive) | > 100 µM (inactive) | > 100 µM (inactive) | > 100 µM | > 100 µM (inactive) | > 83.4 µM (inactive) | > 100 µM (inactive) | > 100 µM (inactive) | > 100 µM (inactive) | > 100 µM (inactive) | > 100 µM (inactive) | > 100 µM (inactive) | > 100 µM (inactive) | > 100 µM (inactive) | > 100 µM (inactive) | > 100 µM (inactive) |
